Measurements taken from patent US9777034B2, “Modular synthesis of amphiphilic Janus glycodendrimers and their self-assembly into glycodendrimersomes” (The Trustees of The University of Pennsylvania, priority 2013, dated 2017).
Entries after “also recorded” stand apart in the source; their conditions may differ.

Legend:
[1] = Cryo-TEM of assemblies formed in water; format: physicochemical
[2] = Self-assembly by injection of THF or ethanol solution into water or buffer, analysed by DLS (size, polydispersity, stability in time); details: for stability of glycodendrimersomes in buffer: PBS and HEPES buffers
Protocol: The resulting assemblies were first analyzed by dynamic light scattering (DLS) for size, polydispersity (PDI), and stability in time. Assemblies stable in time were subsequently analyzed by cryogenic-transmission electron microscopy (cryo-TEM) to determine their structure.
Dynamic light scattering (DLS) was performed with a Malvern Instruments particle sizer (Zetasizer® Nano S, Malvern Instruments, UK) equipped with 4 mW He—Ne laser 633 nm and avalanche photodiode positioned at 175° to the beam and temperature controlled cuvette holder. Instrument parameters were determined automatically along with measurement times. Experiments were performed in triplicate. The Janus-dendrimer (1 mg) dissolved in 100 μL of THF was injected into 2 mL of ultrapure water or buffer followed by 5 seconds of vortex mixing. DLS experiments were measured at 25° C. Different final concentration of dendrimersomes in water was prepared from varying the starting concentration of THF solution with the same injection volume (100 μL) into constant 2.0 mL of ultrapure water or buffer.

[3] = Micropipette aspiration of giant glycodendrimersomes; details: for behaviour in micropipette aspiration: giant vesicles prepared by hydration; for elastic modulus of membrane: average of 11 (52dd) or 13 (51bc) vesicles; for critical area strain: giant vesicles
PA-IL = biological target: T1, PA-IL (Pseudomonas aeruginosa, UniProt Q05097); experiment: Agglutination of glycodendrimersomes with PA-IL; format: binding; details: 10 mM HEPES, 1.0 mM MnCl2 and CaCl2
T1 construct: purchased Sigma-Aldrich
T1 sequence (Q05097 whole entry): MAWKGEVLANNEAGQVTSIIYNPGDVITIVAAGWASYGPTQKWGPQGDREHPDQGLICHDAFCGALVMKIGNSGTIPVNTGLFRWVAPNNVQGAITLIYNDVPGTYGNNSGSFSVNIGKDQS

[4] = system: Viscum album L. agglutinin (VAA)

Row | Substance | structure of assemblies formed in water ([1]; injection into water, cryo-TEM) | further results
1 | (3,5)2Et8G1-PE-TRZi-Gal2 [Compound 49bc] | mixtures of dendrimer aggregates and cubosomes | 
2 | (3,4,5)2Et8G1-PE-TRZi-Gal2 [Compound 49cc] | dendrimer aggregates | 
3 | (3,4,5)2Et8G1-PE-TRZi-3EOGal2 [Compound 49cb] | only soft glycodendrimersomes | stability of glycodendrimersomes in buffer [2]: stable in buffer
4 | (3,4)2Ethyl8G1-PE-TRZ-(galactose)2 [Compound 48aa] | dendrimer aggregates | 
5 | (3,4,5)12G1-PE-spacer-TRZ-(mannose)2 [Compound 50cb] | tubular glycodendrimersome bundles; also recorded: mixtures of tubular and soft spherical glycodendrimersomes and also bundles of tubular dendrimersomes | 
6 | (3,4,5)2Et8G1-PE-TRZi-3EOLac2 [Compound 53fa] | soft glycodendrimersomes | stability of glycodendrimersomes in buffer [2]: stable in buffer
7 | (3,4,5)12G1-PE-TRZ-(mannose)2 [Compound 46cb] | mixture of morphologies | structure of assemblies formed in water ([1]; concentrations higher than 0.5 mg/mL): polygonal glycodendrimersome; structure of assemblies formed in water ([1]; concentrations smaller than 0.5 mg/mL): nano-tubular morphology is dominant
8 | (3,4,5)12G1-PE-spacer-TRZ-(1EO-lactose)2 [Compound 52dc] | glycodendrimersomes | 
9 | (3,4)2Ethyl8G1-PE-TRZ-(mannose)2 [Compound 48ab] | dendrimer aggregates | 
10 | (3,4)2Et8G1-PE-TRZ1-Gal2 [Compound 49ac] | only soft glycodendrimersomes | 
11 | (3,4)12G1-PE-spacer-TRZ-(mannose)2 [Compound 50ab] | solid lamellae and solid vesicles | 
12 | (3,5)2Et8G1-PE-TRZi-Man2 [Compound 49ba] | mixtures of soft glycodendrimersomes and dendrimer aggregates; also recorded: coexistence of thick-wall glycodendrimersomes and large dendrimer aggregates | 
13 | (3,4)12G1-PE-TRZ-4EOLac2 [Compound 52ad] | mixture of soft vesicles and bundles of rod-like micelles | 
14 | (3,5)2Et8G1-PE-TRZi-3EOLac2 [Compound 53ea] | soft glycodendrimersomes | stability of glycodendrimersomes in buffer [2]: stable in buffer
15 | (3,4,5)12G1-PE-spacer-TRZ-(galactose)2 [Compound 50ca] | mixture of tubular and spherical glycodendrimersomes; also recorded: mixtures of tubular and soft spherical glycodendrimersomes and also bundles of tubular dendrimersomes | 
16 | (3,4)2Et8G1-PE-TRZi-3EOLac2 [Compound 53da] | glycodendrimersomes and solid lamellae; also recorded: soft glycodendrimersomes | 
17 | (3,4)12G1-PE-TRZi-3EOMan2 [Compound 51ab] | solid vesicles | 
18 | (3,4,5)12G1-PE-TRZi-1EOMan2 [Compound 51cd] | solid lamellae | 
19 | (3,5)12G1-PE-TRZi-3EOMan2 [Compound 51bb] | soft vesicles | agglutination with Con A, dependence on glycodendrimersome diameter (concanavalin A (Con A)): smallest glycodendrimersome provides the fastest agglutination; behaviour in micropipette aspiration [3]: fluid unilamellar membrane; stability of glycodendrimersomes in buffer [2]: stable in buffer
20 | (3,5)12G1-PE-TRZi-2EOMan2 [Compound 51bc] | soft vesicles | elastic modulus of membrane [3]: 163±30 dyne/cm; critical area strain [3]: 5-10%; behaviour in micropipette aspiration [3]: fluid unilamellar membrane
21 | (3,4)12G1-PE-TRZi-3EOGal2 [Compound 51aa] | solid lamellae | 
22 | (3,5)12G1-PE-TRZi-3EOLac2 [Compound 53ba] | soft glycodendrimersomes | stability of glycodendrimersomes in buffer [2]: stable in buffer

Row | Substance | structure of assemblies formed in water ([1]; injection into water, cryo-TEM) | further results
23 | (3,4)12G1-PE-spacer-TRZ-(galactose)2 [Compound 50aa] | solid lamellae and solid vesicles | behaviour in micropipette aspiration [3]: cannot be aspirated
24 | (3,4)12G1-PE-TRZi-2EOMan2 [Compound 51ac] | solid vesicles | 
25 | (3,5)12G1-PE-TRZi-3EOGal2 [Compound 51ba] | soft vesicles | agglutination with PA-IL (PA-IL): agglutination; also recorded: agglutinated; agglutination with VAA [4]: agglutinated; stability of glycodendrimersomes in buffer [2]: stable in buffer
26 | (3,5)12G1-PE-TRZi-1EOMan2 [Compound 51bd] | cubosomes | symmetry of glycodendrimercubosome ([1]; 1.0 mg/mL, Fourier transform of cryo-TEM): Pn3m cubic symmetry
27 | (3,4)2Et8G1-PE-TRZi-3EOGal2 [Compound 49ab] | only soft glycodendrimersomes | stability of glycodendrimersomes in buffer [2]: stable in buffer
28 | (3,4,5)12G1-PE-TRZi-3EOMan2 [Compound 51cb] | solid lamellae | morphological change on annealing ([1]; 0.5 mg/mL in water, annealing at 60° C. for 30 min): transition from solid lamellae to solid vesicles
29 | (3,4,5)2Et8G1-PE-TRZi-Man2 [Compound 49ca] | mixtures of soft glycodendrimersomes and dendrimer aggregates; also recorded: formation of dendrimer aggregates is dominant with only few glycodendrimersomes being observed | 
30 | (3,4,5)12G1-PE-TRZi-2EOMan2 [Compound 51cc] | solid lamellae | 
31 | (3,5)12G1-PE-spacer-TRZ-(galactose)2 [Compound 50ba] | dendrimer aggregates | 
32 | (3,4)12G1-PE-TRZi-Man2 [Compound 47ab] | solid glycodendrimersomes | 
33 | (3,4,5)12G1-PE-TRZ-(galactose)2 [Compound 46ca] | solid lamellae | 
34 | ((3,4)12G-PE-TRZ-(galactose)2 [Compound 46aa] | sheet-like solid lamellae | 
35 | (3,4,5)12G1-PE-spacer-TRZ-(4EO-lactose)2 [Compound 52dd] | glycodendrimersomes | elastic modulus of membrane [3]: 49.6±15 dyne/cm; critical area strain [3]: greater than 20%; behaviour in micropipette aspiration [3]: fluid unilamellar membrane; also recorded: display hysteresis; stability of glycodendrimersomes in buffer [2]: stable in buffer
36 | (3,4,5)12G1-PE-TRZi-3EOLac2 [Compound 53ca] | solid and polygonal glycodendrimersomes; also recorded: solid vesicles and solid lamellae | 
37 | (3,4)12G1-PE-TRZi-3EOLac2 [Compound 53aa] | combination of soft glycodendrimersomes and rod-like micelles | 
38 | (3,4)12G1-PE-TRZ-(mannose)2 [Compound 46ab] | sheet-like solid lamellae | 
39 | (3,4,5)12G1-PE-TRZi-3EOGal2 [Compound 51ca] | solid lamellae | 
40 | (3,4)2Et8G1-PE-TRZi-Man2 [Compound 49aa] | only soft glycodendrimersomes | 
41 | (3,5)12G1-PE-spacer-TRZ-(mannose)2 [Compound 50bb] | dendrimer aggregates | 
42 | (3,4)12G1-PE-TRZ-1EOMan2 [Compound 51ad] | solid vesicles | behaviour in micropipette aspiration [3]: cannot be aspirated
43 | (3,5)2Et8G1-PE-TRZi-3EOGal2 [Compound 49bb] | only soft glycodendrimersomes | precipitation ([2]; 10 mg/mL final concentration in water): does not exhibit any sign of precipitation; stability of glycodendrimersomes in buffer [2]: stable in buffer; average vesicle size ([2]; concentration above 10 mg/mL): of the order of a micrometer; stability of vesicles in water and buffer ([2]; concentrations higher than 10 mg/mL): stable in water and buffer
